Measurements taken from patent US8003595B2, “Amino acid sequences facilitating penetration of a substance of interest into cells and/or cell nuclei” (Cellectis, priority 2000, dated 2011).
Read-outs that look alike come from different tables or passages of the source. Marks after values point to notes of the source that are not given here. Where no end group is shown, it is not given here.

Key:
[1] = test system: H1299 cells; experiment: Inhibition of peptide-peroxidase internalization by drugs or 4° C.; assay type: cell-based, human; details: peptide-peroxidase 0.2 μg/ml, 2 hours
Experimental: To understand the biological mechanisms whereby the peptides penetrate into the cells and their compartmentalization, experiments are done with drugs whose action on certain cell compartments is specific. The peptide-peroxidases were incubated with H1299 cells at a concentration of 0.2 μg/ml for 2 hours in the presence, or not, of a drug. The cells were lysed, and the peroxidase dosed in the cellular lysate.

[2] = ELISA fixation of biotinylated peptides on sensitized plates; assay type: binding; details: read-out: avidity (Kd), quantity of peptides necessary to obtain 50% fixation, Heparin; Table 5
Experimental: The capacity of peptides SEQ ID NO: 1 to 21 to attach themselves to DNA and heparin is evaluated on ELISA plates sensitized with DNA or heparin. Dilutions of biotinylated peptides are deposited on the plates and their fixation is shown using streptavidin conjugated with peroxidase. […] The avidity of each of the peptides for DNA or heparin is evaluated by the quantity (×10^−6 M) of peptides necessary to obtain 50% fixation.

[3] = as above; assay type: binding; details: read-out: avidity (Kd), quantity of peptides necessary to obtain 50% fixation, Chondroitin A; Table 5
[4] = as above; assay type: binding; details: read-out: avidity (Kd), quantity of peptides necessary to obtain 50% fixation, Chondroitin B; Table 5
[5] = as above; assay type: binding; details: read-out: avidity (Kd), quantity of peptides necessary to obtain 50% fixation, Chondroitin C; Table 5
[6] = test system: H1299 cells; experiment: Internalization of covalent peptide-peroxidase conjugates; assay type: cell-based, human; details: H1299, 0.2 μg/ml conjugate, 2 hours
Summary of the method: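 Peptides coupled via C-terminal cysteine to maleimide-activated peroxidase; uncoupled peptide removed by ultrafiltration. H1299 cells incubated 2 h with increasing conjugate concentrations, washed, lysed; internalized peptide quantified from lysate peroxidase against a conjugate standard curve, as pg/10^3 cells.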

[7] = test system: 3T3; experiment: as above; assay type: cell-based, mouse; details: 2 hours
Experimental: (§1) To evaluate more directly the penetration of the peptides, avoiding the avidin-peroxidase bias, some of the peptides in sequences SEQ ID NO: 25 to 48 were conjugated covalently with cysteine in the C-terminal position of the peptide to peroxidase. The peptides were coupled with peroxidase in the following way:
(§2) One mg of peroxidase activated with maleimide (Sigma) in 100 μl of sodium phosphate buffer, NaCl 0.15 M, EDTA 5 mM, had 1 mg of peptide added to it. After 2 hours at laboratory temperature, β-mercaptoethanol is added to a final concentration of 1.5 mM for 15 minutes. The uncoupled peptide is eliminated by centrifugation on ultrafiltration membranes (cut-off threshold=30,000 Daltons, Sartorius), followed by three washings in sodium phosphate buffer 0.1 M, pH 7.4 containing 0.15 M NaCl.
(§3) It appears that the higher the concentration of peptide-peroxidase conjugate in the culture medium, the more the quantity internalized increases. To compare the penetration of the conjugates by cell type, the cells from different lines were incubated with 0.2 μg/ml of peptide-peroxidase conjugate for 2 hours, and the quantity of peroxidase dosed in the lysates. Table 9 and Table 9B below give the results expressed in pg/10^3 cells. The quantity of each peptide internalized in the different lines generally varies only from single to double.

[8] = test system: HeLa; experiment: as above; assay type: cell-based, human; details: 2 hours
Experimental: as §1, §2, §3

[9] = test system: gram-positive and gram-negative bacterial strains; experiment: Antibacterial activity of cationic peptides, summary over strains; assay type: cell-based; details: summary of Table 29
Experimental: (§4) The gram-positive bacterial strains are: Enterococcus faecalis (ATCC 29212), and Staphylococcus aureus (ATCC 25923) and the gram-negative strains are: Escherichia coli (ATCC 25922), Pseudomonas aeruginosa (ATCC 27853) and Salmonella typhimurim (clinical isolate), Salmonella typhiTy2 (WHO). The bacteria are cultured with shaking all night at 37° C., then recultured at a dilution of 1:50 in some fresh Luria-Bertani (LB) medium for 2 hours. The bacterial concentration is adjusted to […], and 50 μl is distributed in 96-well plates with an equal volume of peptides diluted half and half (256-0.5 μg/ml) in LB medium. […] To determine the minimum bactericide concentration, 10 μl from each well is spread on gelose plates in LB medium.
However, when peptide HPB13 (SEQ ID NO: 38) is coupled with peptide SEQ ID NO: 24, it enhances its activity by a factor of 50 to 100 (peptide SEQ ID NO: 45). […] None these peptides are active on gram-positive bacteria.

[10] = test system: Caco-2 cell monolayers; experiment: Integrity of the Caco-2 barrier model in presence of HBP peptides; details: Table 30; 30 μg/ml, 8 hours in HBSS; three inserts; listed as HBP7
Experimental: Caco-2 cells were seeded at a density of 160000 cells/cm^2 on a polyethylene terephtalate microporous membranes, previously coated with bovine dermal collagen, in a synthetic serum-free medium (Basal Defined Medium, BDM). Culture medium was changed three times a week and cells were maintained at 37° C. in a an atmosphere of 5% CO2 for 18 days. As a negative control to check the integrity of the Caco-2 barrier, 10^6 dpm/ml D-[^14C]-mannitol was used. […] Other controls included D-[^14C]-mannitol/L-[^3H]-Proline+HBP7 30 μg/ml and D-[^14C]-mannitol/L-[^3H]-proline+HBP10 30 μg/ml.
Trans-epithelial transport experiments were carried out. The trans-epithelial electrical resistance (TEER) was measured to check the integrity of the Caco-2 cell monolayers. The cell monolayers were preincubated in Hanks' balanced salt solution (HBSS, 5 mM glucose, supplemented with 10 mM Hepes) for 8 hours at 37° C. At 1, 2, 4 and 8 hours, 100 μl of medium was collected from the lower compartment and replaced by fresh HBSS. At the end of the experiment (8 hours), the cell monolayers were washed three times with PBS and TEER was measured.

[11] = test system: H1299; experiment: Growth inhibition by peptide-doxorubicin conjugates (MTT, 48 hours); assay type: cell-based; details: Homo sapiens, NCI-H1299, read-out: molar concentration giving 50% inhibition of the growth of the cells
Experimental: (§5) To evaluate the biological activity of peptide-doxorubicin conjugates, the inhibition of the growth of tumor cells in culture is measured.
(§6) The cells are sown the night before in 96-well plates at the rate of 10^3 cells per well.

[12] = test system: HH9; experiment: as above; assay type: cell-based; details: Homo sapiens, read-out: molar concentration giving 50% inhibition of the growth of the cells
Experimental: as §5, §6

[13] = test system: B16.F10; experiment: as above; assay type: cell-based, murine; details: Mus musculus, read-out: molar concentration giving 50% inhibition of the growth of the cells
Experimental: as §5, §6

[14] = test system: K562 R; experiment: as above; assay type: cell-based; details: Homo sapiens, K-562R, read-out: molar concentration giving 50% inhibition of the growth of the cells, resistant to doxorubicin
Experimental: as §5, §6
(§7) It appears that, in vitro, the sensitivity of the cells to the peptide-doxorubicin conjugates is on the same order of magnitude as that of natural doxorubicin. The lines resistant to doxorubicin (K562R and MCF7R) require a greater concentration of doxorubicin.

[15] = test system: MCF7R; experiment: as above; assay type: cell-based; details: Homo sapiens, read-out: molar concentration giving 50% inhibition of the growth of the cells, resistant to doxorubicin
Experimental: as §5, §6, §7

[16] = test system: HH9 tumors; experiment: In vivo anti-tumor activity of peptide-doxorubicin conjugates; parameters: species or system nude mice; details: day 60, total of 120 μg of doxorubicin or the equivalent, peritumoral injection
Experimental: Nude mice are injected with 3×10^6 HH9 cells subcutaneously in the side. On day 19 after the cell implant, the tumors are measured, and 4 groups of 6 mice are formed that receive by peritumoral injection either NaCl, or natural doxorubicin, or 1047-doxorubicin, or HBP1-doxorubicin conjugates at the rate of 30 μg of doxorubicin or the equivalent of conjugates every two weeks. The tumors are measured and their volume calculated.

[17] = In vivo toxicity of peptide-doxorubicin conjugates (weight loss); details: for Weight loss: relative to mice that received NaCl; for Weight of the mice: intravenous, peptide-doxorubicin conjugates
Experimental: (§9) Injection of doxorubicin or doxorubicin-peptide by the intravenous route makes it possible to compare the toxicity of the different preparations. The estimate is made by the weight loss of the mice (5 mice per group). Two experiments were done: • Experiment 1: The mice received 200 μg per injection at 3-day intervals, or 600 μg of doxorubicin or the equivalent peptide-doxorubicin in all. The mice were weighed the day after the last injection. • Experiment 2: The mice received 2 injections of 200 -μg of doxorubicin or the peptide-doxorubicin equivalent at one week intervals, or 400 μg in all, and were weighed the day after the last injection.
(§10) The average weight loss is calculated in relation to the average weight of the mice that received NaCl.

[18] = test system: Escherischia coli (ATCC25922); experiment: Activity of lysozyme coupled to peptides (MBC); assay type: cell-based, Escherichia coli; details: E. coli
Experimental: The […] bacterial strain Escherischia coli (ATCC25922) is cultured until the semi-logarithmic phase in Luria-Bertani (LB) medium. The bacteria are collected by centrifugation and resuspended in 1% bacto-peptone medium at a concentration of 5×10^5 cfu/ml (colony forming unit/ml). Lysozyme or the peptide-lysozyme conjugates are diluted half and half (256 to 0.5 μg/ml) in bacto-peptone medium, and 50 μl is distributed in 96-well plates. 50 μl of the bacterial dilution is then added to each well. After 16 hours of incubation at 37° C., 10 μl from each well is smeared on gelose plates in LB medium.
Table 28 reports the inhibition of the growth of E. coli (MBC μg/ml).

[19] = test system: Enterococcus faecalis (ATCC 29212); experiment: microbe, parasite or virus in culture; assay type: cell-based; details: ATCC 29212
Experimental: as §4
(§8) The results are expressed as the peptide concentration in MBC (μM).

[20] = test system: Escherichia coli (ATCC 25922); experiment: microbe, parasite or virus in culture; assay type: cell-based; details: ATCC 25922; read-out: MBC
Experimental: as §4, §8

[21] = test system: Pseudomonas aeruginosa (ATCC 27853); experiment: microbe, parasite or virus in culture; assay type: cell-based; details: ATCC 27853
Experimental: as §4, §8

[22] = test system: Staphylococcus aureus (ATCC 25923); experiment: microbe, parasite or virus in culture; assay type: cell-based; details: ATCC 25923
Experimental: as §4, §8

[23] = test system: Salmonella typhimurim (clinical isolate); experiment: Antibacterial activity of cationic peptides (MBC); assay type: cell-based; details: S. typhimurium
Experimental: as §4, §8

[24] = test system: Salmonella typhiTy2 (WHO); experiment: microbe, parasite or virus in culture; assay type: cell-based, S. typhi-Ty2; details: S. typhi-Ty2
Experimental: as §4, §8

[25] = mouse, in vivo, iv
Experimental: as §9, §10

[26] = test system: HeLa cells; experiment: Penetration of RNase A transported by peptide-F(ab′)2 anti-RNase transporter; assay type: cell-based, human
Experimental: Two mg of antibody F(ab′)2 anti-RNase in 1 ml of potassium phosphate buffer 0.1 M pH 7.4 are added to 110 μg of SMCC [succinimidyl 4-(N-maleimidomethyl)cyclohexane-1-carboxylate] in 11 μl of dimethylsulfoxide. The solution is incubated for 45 minutes at laboratory temperature. The excess reagent is eliminated by centrifugation on ultrafiltration membranes (cutoff threshold=10,000 Da, Vivascience), followed by three washings in sodium phosphate buffer 10 mM, pH 7 containing 01.5 M of NaCl and 5 mM of EDTA. The coupling with the peptide is then done in a molar ratio of 6 peptides to 1 F(ab′)2 in the sodium phosphate buffer 10 mM, pH 7, containing 0.5 M of NaCl and 5 mM of EDTA for three hours at laboratory temperature. Then, the excess uncoupled peptide is totally eliminated by centrifugation on ultrafiltration membranes, as in the preceding step. These transporters [anti-RNase peptide-F(ab′)2)] are added to ribonuclease A in some complete culture medium, and the solution is incubated for 1 hour at laboratory temperature. The molar ratio of this reaction is 2 RNase/1 F(ab′)2. […]
To measure the quantity of RNase A internalized, the cells are trypsinized, transferred into microtubes and counted. […]

[27] = test system: HH9 cells
Experimental: The cells are sown at night on plates with 96 wells, at the rate of 10^3 cells per well.
The next day, the supernatant is suctioned off and replaced with 100 μl of medium containing succession dilutions of RNase A-vector or natural RNase A and the culture continued for 72 hours.
The wells are then filled with 50 μl of a solution of MTT (3-(4,5-dimethylthiazol-2-yl)-2,5-diphenyl tetrazolium bromide) at 1 mg/ml in the culture medium and cultivated for 4 hours.
The supernatant is removed, and 100 μl of dimethylsulfoxide is added to the wells. After the crystals dissolve, the coloration is read at 550 nm.
The results are calculated as a percentage of the average optic density obtained in the wells of cells containing the dilutions of the samples being tested and the optical density of the wells that received only medium.
The different peptide-RNase conjugates were tested on varied cell lines.

GKRKKKGKLGKKRDP [SEQ ID NO: 30]
percentage inhibition of peptide internalization ([1]; Ammonium chloride (50 mM)): 70%
percentage inhibition of peptide internalization ([1]; Chloroquin (100 μM)): 79%
percentage inhibition of peptide internalization ([1]; Genistein (200 μM)): 68%
percentage inhibition of peptide internalization ([1]; Sodium chloride (80 mM)): 69%
percentage inhibition of peptide internalization ([1]; Temperature (4° C.)): 100%
Kd [2]: 54 nM
Kd [3]: 78 nM
Kd [4]: 58 nM
Kd [5]: 19 nM
Internalization of Peptide-peroxidase ([6]; Table 9): 22.5 pg/10^3 cells
Internalization of Peptide-peroxidase ([6]; Table 9B): 63.3 pg/10^3 cells
Internalization of Peptide-peroxidase ([7]; Table 9, 0.2 μg/ml conjugate): 48.8 pg/10^3 cells
Internalization of Peptide-peroxidase ([7]; Table 9B, 0.2 μg/ml conjugate): 44.2 pg/10^3 cells
Internalization of Peptide-peroxidase ([8]; Table 9, 0.2 μg/ml conjugate): 11 pg/10^3 cells
Internalization of Peptide-peroxidase ([8]; Table 9B, 0.2 μg/ml conjugate): 3.6 pg/10^3 cells
bactericide / anti-microbial activity [9]: no anti-microbial activity
TEER after incubation [10]: 145 Ω · cm^2

COc1cccc2c1C(=O)c1c(O)c3c(c(O)c1C2=O)C[C@@](O)(C(=O)CO)C[C@@H]3O[C@H]1C[C@H](N)[C@H](O)[C@H](C)O1 [Doxorubicin (natural), Doxorubicin]
IC50 [11]: 300 nM
IC50 [12]: 300 nM
IC50 [13]: 100 nM
IC50 [14]: 3000 nM
IC50 [15]: 200000 nM
tumor growth inhibition [16]: 79%
Weight loss ([17]; Exp. 1: 600 μg in all): 31* %
Weight loss ([17]; Exp. 1: 600 μg in all, listed as natural doxorubicin): 31%
Weight of the mice ([17]; Exp. 1: 600 μg of doxorubicin or equivalent in all): 16.06
Weight loss ([17]; Exp. 2: 400 μg in all): 15%
Weight of the mice ([17]; Exp. 2: 400 μg of doxorubicin or equivalent in all): 26.7

Natural lysozyme: lysozyme, a muraminidase, unconjugated
minimal bactericide concentration (MBC), inhibits 75% of the growth [18]: >256 µg/mL

KHLKKHLKKHLK [SEQ ID NO: 38]
MBC [19]: >170 µM
MBC [20]: >170 µM
MBC [21]: >170 µM
MBC [22]: >170 µM
MBC [23]: >170 µM
MBC [24]: >170 µM
Weight of the mice [25]: 30

B1: natural RNase A: bovine Ribonuclease A, unconjugated (protein)
chain: KETAAAKFERQHMDSSTSAASSSNYCNQMMKSRNLTKDRCKPVNTFVHESLADVQAVCSQKNVACKNGQTNCYQSYSTMSITDCRETGSSKYPNCAYKTTQANKHIIVACEGNPYVPVHFDASV
Quantity of RNase internalized [26]: 0 pg/10^4 cells
cytotoxic activity [27]: no cytotoxic activity
